Measured values reported in patent US20230278972A1, “SUBSTITUTED HALOALKYL SULFONANILIDE HERBICIDES” (FMC Corporation, priority 2020, published 2023).

Experiments:
Assay type in all cases: in vivo
[1] = system: pigweed (Amaranthus retroflexus); assay: Test A postemergence, pigweed; settings: Postemergence, 0 to 100 scale (0 no effect, 100 complete control)
In short: (§1)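 Preemergence: seeded pots of loam plus sand received a directed soil spray. Postemergence: seedlings at one to two leaves, 2 to 10 cm high, were oversprayed. Each compound was formulated in a non-phytotoxic solvent mix that included a surfactant.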

[2] = system: kochia (Bassia scoparia); assay: Test A preemergence, kochia; settings: Preemergence; for Kochia plant response rating: 125 g ai/ha, visual injury on 0 to 100 scale (0 no effect, 100 complete control), approximately 10 days; for Plant response rating, Kochia: 0 to 100 scale (0 no effect, 100 complete control)
In short: as §1

[3] = system: Foxtail, Giant (giant foxtail, Setaria faberi); assay: Test A preemergence, Foxtail, Giant; settings: Preemergence; for Foxtail, Giant plant response rating: 125 g ai/ha, visual injury on 0 to 100 scale (0 no effect, 100 complete control), approximately 10 days; for Plant response rating, Foxtail, Giant: 0 to 100 scale (0 no effect, 100 complete control)
In short: as §1

[4] = system: barnyardgrass (Echinochloa crus-galli); assay: Test A preemergence, barnyardgrass; settings: Preemergence; for Barnyardgrass plant response rating: 125 g ai/ha, visual injury on 0 to 100 scale (0 no effect, 100 complete control), approximately 10 days; for Plant response rating, Barnyardgrass: 0 to 100 scale (0 no effect, 100 complete control)
In short: as §1

[5] = system: kochia (Bassia scoparia); assay: Test A postemergence, kochia; settings: Postemergence, 0 to 100 scale (0 no effect, 100 complete control)
In short: as §1

[6] = system: ragweed (common ragweed, Ambrosia artemisiifolia); assay: Test A preemergence, ragweed; settings: Preemergence; for Ragweed plant response rating: 125 g ai/ha, visual injury on 0 to 100 scale (0 no effect, 100 complete control), approximately 10 days; for Plant response rating, Ragweed: 0 to 100 scale (0 no effect, 100 complete control)
In short: as §1

[7] = system: Foxtail, Giant (giant foxtail, Setaria faberi); assay: Test A postemergence, Foxtail, Giant; settings: Postemergence, 0 to 100 scale (0 no effect, 100 complete control)
In short: as §1

[8] = system: galium (catchweed bedstraw, Galium aparine); assay: Test A postemergence, galium; settings: Postemergence, 0 to 100 scale (0 no effect, 100 complete control)
In short: as §1

[9] = system: ragweed (common ragweed, Ambrosia artemisiifolia); assay: Test A postemergence, ragweed; settings: Postemergence, 0 to 100 scale (0 no effect, 100 complete control)
In short: as §1

[10] = system: barnyardgrass (Echinochloa crus-galli); assay: Test A postemergence, barnyardgrass; settings: Postemergence, 0 to 100 scale (0 no effect, 100 complete control)
In short: as §1

[11] = system: pigweed (Amaranthus retroflexus); assay: Test A preemergence, pigweed; settings: for Pigweed plant response rating: 125 g ai/ha, visual injury on 0 to 100 scale (0 no effect, 100 complete control), approximately 10 days; for Plant response rating, Pigweed: 0 to 100 scale (0 no effect, 100 complete control)
In short: as §1

[12] = system: wheat (Triticum aestivum); assay: Test A postemergence, wheat; settings: Postemergence, 0 to 100 scale (0 no effect, 100 complete control)
In short: as §1

[13] = system: corn (Zea mays); assay: Test A postemergence, corn; settings: Postemergence, 0 to 100 scale (0 no effect, 100 complete control)
In short: as §1

[14] = system: Ryegrass, Italian (Italian ryegrass, Lolium multiflorum); assay: Test A postemergence, Ryegrass, Italian; settings: Postemergence, 0 to 100 scale (0 no effect, 100 complete control)
In short: as §1

[15] = system: blackgrass (Alopecurus myosuroides); assay: Test A postemergence, blackgrass; settings: Postemergence, 0 to 100 scale (0 no effect, 100 complete control)
In short: as §1

[16] = system: Ryegrass, Italian (Italian ryegrass, Lolium multiflorum); assay: Test A preemergence, Ryegrass, Italian; settings: Preemergence; for Ryegrass, Italian plant response rating: 125 g ai/ha, visual injury on 0 to 100 scale (0 no effect, 100 complete control), approximately 10 days; for Plant response rating, Ryegrass, Italian: 0 to 100 scale (0 no effect, 100 complete control)
In short: as §1

[17] = 125 g ai/ha, visual injury approx. 10 days
[18] = 500 g ai/ha, visual injury, approx. 10 days
[19] = 31 g ai/ha, visual injury, approx. 10 days

CCn1cc(-c2cc(N(S(=O)(=O)C(F)(F)F)S(=O)(=O)C(F)(F)F)c(C)cc2C)c(=O)n(C)c1=O [Compound 30]
Plant response rating, Pigweed [1, 17]: 40 | Plant response rating, Pigweed [1, 18]: 60 | Kochia plant response rating [2]: 70 | Plant response rating, Kochia ([2]; 500 g ai/ha): 90 | Foxtail, Giant plant response rating [3]: 80 | Plant response rating, Foxtail, Giant ([3]; 500 g ai/ha): 100 | Barnyardgrass plant response rating [4]: 90 | Plant response rating, Barnyardgrass ([4]; 500 g ai/ha): 90 | Plant response rating, Kochia [5, 17]: 10 | Plant response rating, Kochia [5, 18]: 50 | Ragweed plant response rating [6]: 20 | Plant response rating, Ragweed ([6]; 500 g ai/ha): 40 | Plant response rating, Foxtail, Giant [7, 17]: 70 | Plant response rating, Foxtail, Giant [7, 18]: 90 | Plant response rating, Galium [8, 17]: 70 | Plant response rating, Galium [8, 18]: 90 | Plant response rating, Ragweed [9, 17]: 40 | Plant response rating, Ragweed [9, 18]: 40 | Plant response rating, Barnyardgrass [10, 17]: 90 | Plant response rating, Barnyardgrass [10, 18]: 90 | Pigweed plant response rating [11]: 20 | Plant response rating, Pigweed ([11]; 500 g ai/ha): 60 | Plant response rating, Wheat [12, 17]: 60 | Plant response rating, Wheat [12, 18]: 70 | Plant response rating, Corn [13, 17]: 0 | Plant response rating, Corn [13, 18]: 40 | Plant response rating, Ryegrass, Italian [14, 17]: 40 | Plant response rating, Ryegrass, Italian [14, 18]: 70 | Plant response rating, Blackgrass [15, 17]: 60 | Plant response rating, Blackgrass [15, 18]: 80 | Ryegrass, Italian plant response rating [16]: 90 | Plant response rating, Ryegrass, Italian ([16]; 500 g ai/ha): 90

CCn1cc(-c2cc(NS(=O)(=O)C(F)(F)F)c(C)cc2C)c(=O)n(C)c1=O [Compound 32]
Plant response rating, Pigweed [1, 17]: 10 | Plant response rating, Pigweed [1, 18]: 20 | Kochia plant response rating [2]: 60 | Plant response rating, Kochia ([2]; 500 g ai/ha): 90 | Foxtail, Giant plant response rating [3]: 100 | Plant response rating, Foxtail, Giant ([3]; 500 g ai/ha): 100 | Barnyardgrass plant response rating [4]: 100 | Plant response rating, Barnyardgrass ([4]; 500 g ai/ha): 100 | Plant response rating, Kochia [5, 17]: 20 | Plant response rating, Kochia [5, 18]: 40 | Ragweed plant response rating [6]: 0 | Plant response rating, Ragweed ([6]; 500 g ai/ha): 50 | Plant response rating, Foxtail, Giant [7, 17]: 90 | Plant response rating, Foxtail, Giant [7, 18]: 90 | Plant response rating, Galium [8, 17]: 70 | Plant response rating, Galium [8, 18]: 90 | Plant response rating, Ragweed [9, 17]: 30 | Plant response rating, Ragweed [9, 18]: 60 | Plant response rating, Barnyardgrass [10, 17]: 90 | Plant response rating, Barnyardgrass [10, 18]: 90 | Pigweed plant response rating [11]: 20 | Plant response rating, Pigweed ([11]; 500 g ai/ha): 60 | Plant response rating, Wheat [12, 17]: 70 | Plant response rating, Wheat [12, 18]: 70 | Plant response rating, Corn [13, 17]: 10 | Plant response rating, Corn [13, 18]: 80 | Plant response rating, Ryegrass, Italian [14, 17]: 80 | Plant response rating, Ryegrass, Italian [14, 18]: 90 | Plant response rating, Blackgrass [15, 17]: 90 | Plant response rating, Blackgrass [15, 18]: 90 | Ryegrass, Italian plant response rating [16]: 100 | Plant response rating, Ryegrass, Italian ([16]; 500 g ai/ha): 100

COc1cc(-c2cc(N(S(=O)(=O)C(F)(F)F)S(=O)(=O)C(F)(F)F)c(C)cc2C)c(=O)n(C)n1 [Compound 35]
Plant response rating, Pigweed [1, 17]: 30 | Plant response rating, Pigweed [1, 18]: 60 | Kochia plant response rating [2]: 0 | Plant response rating, Kochia ([2]; 500 g ai/ha): 20 | Foxtail, Giant plant response rating [3]: 60 | Plant response rating, Foxtail, Giant ([3]; 500 g ai/ha): 90 | Barnyardgrass plant response rating [4]: 70 | Plant response rating, Barnyardgrass ([4]; 500 g ai/ha): 90 | Plant response rating, Kochia [5, 17]: 0 | Plant response rating, Kochia [5, 18]: 10 | Ragweed plant response rating [6]: 20 | Plant response rating, Ragweed ([6]; 500 g ai/ha): 80 | Plant response rating, Foxtail, Giant [7, 17]: 0 | Plant response rating, Foxtail, Giant [7, 18]: 10 | Plant response rating, Galium [8, 17]: 60 | Plant response rating, Galium [8, 18]: 70 | Plant response rating, Ragweed [9, 17]: 0 | Plant response rating, Ragweed [9, 18]: 40 | Plant response rating, Barnyardgrass [10, 17]: 0 | Plant response rating, Barnyardgrass [10, 18]: 80 | Pigweed plant response rating [11]: 50 | Plant response rating, Pigweed ([11]; 500 g ai/ha): 80 | Plant response rating, Wheat [12, 17]: 0 | Plant response rating, Wheat [12, 18]: 40 | Plant response rating, Corn [13, 17]: 0 | Plant response rating, Corn [13, 18]: 0 | Plant response rating, Ryegrass, Italian [14, 17]: 0 | Plant response rating, Ryegrass, Italian [14, 18]: 40 | Plant response rating, Blackgrass [15, 17]: 20 | Plant response rating, Blackgrass [15, 18]: 30 | Ryegrass, Italian plant response rating [16]: 40 | Plant response rating, Ryegrass, Italian ([16]; 500 g ai/ha): 50

CSc1cc(-c2cc(NS(=O)(=O)C(F)(F)F)c(C)cc2C)c(=O)n(C)n1 [Compound 36]
Plant response rating, Pigweed ([1]; 31 g ai/ha): 0 | Plant response rating, Pigweed [1, 17]: 30 | Plant response rating, Kochia [2, 19]: 0 | Kochia plant response rating [2]: 0 | Plant response rating, Foxtail, Giant [3, 19]: 20 | Foxtail, Giant plant response rating [3]: 80 | Plant response rating, Barnyardgrass [4, 19]: 0 | Barnyardgrass plant response rating [4]: 50 | Plant response rating, Kochia ([5]; 31 g ai/ha): 10 | Plant response rating, Kochia [5, 17]: 20 | Plant response rating, Ragweed [6, 19]: 0 | Ragweed plant response rating [6]: 0 | Plant response rating, Foxtail, Giant ([7]; 31 g ai/ha): 0 | Plant response rating, Foxtail, Giant [7, 17]: 0 | Plant response rating, Galium ([8]; 31 g ai/ha): 20 | Plant response rating, Galium [8, 17]: 40 | Plant response rating, Ragweed ([9]; 31 g ai/ha): 0 | Plant response rating, Ragweed [9, 17]: 0 | Plant response rating, Barnyardgrass ([10]; 31 g ai/ha): 0 | Plant response rating, Barnyardgrass [10, 17]: 0 | Plant response rating, Pigweed [11, 19]: 0 | Pigweed plant response rating [11]: 10 | Plant response rating, Wheat ([12]; 31 g ai/ha): 0 | Plant response rating, Wheat [12, 17]: 50 | Plant response rating, Corn ([13]; 31 g ai/ha): 0 | Plant response rating, Corn [13, 17]: 0 | Plant response rating, Ryegrass, Italian ([14]; 31 g ai/ha): 20 | Plant response rating, Ryegrass, Italian [14, 17]: 10 | Plant response rating, Blackgrass ([15]; 31 g ai/ha): 0 | Plant response rating, Blackgrass [15, 17]: 0 | Plant response rating, Ryegrass, Italian [16, 19]: 0 | Ryegrass, Italian plant response rating [16]: 60

CCn1c(=O)c(-c2cc(NS(=O)(=O)C(F)(F)F)c(C)cc2C)cn(C)c1=O [Compound 37]
Plant response rating, Pigweed [1, 17]: 50 | Plant response rating, Pigweed [1, 18]: 50 | Kochia plant response rating [2]: 80 | Plant response rating, Kochia ([2]; 500 g ai/ha): 90 | Foxtail, Giant plant response rating [3]: 100 | Plant response rating, Foxtail, Giant ([3]; 500 g ai/ha): 100 | Barnyardgrass plant response rating [4]: 90 | Plant response rating, Barnyardgrass ([4]; 500 g ai/ha): 90 | Plant response rating, Kochia [5, 17]: 60 | Plant response rating, Kochia [5, 18]: 70 | Ragweed plant response rating [6]: 40 | Plant response rating, Ragweed ([6]; 500 g ai/ha): 80 | Plant response rating, Foxtail, Giant [7, 17]: 90 | Plant response rating, Foxtail, Giant [7, 18]: 90 | Plant response rating, Galium [8, 17]: 90 | Plant response rating, Galium [8, 18]: 100 | Plant response rating, Ragweed [9, 17]: 30 | Plant response rating, Ragweed [9, 18]: 70 | Plant response rating, Barnyardgrass [10, 17]: 90 | Plant response rating, Barnyardgrass [10, 18]: 90 | Pigweed plant response rating [11]: 50 | Plant response rating, Pigweed ([11]; 500 g ai/ha): 90 | Plant response rating, Wheat [12, 17]: 80 | Plant response rating, Wheat [12, 18]: 80 | Plant response rating, Corn [13, 17]: 20 | Plant response rating, Corn [13, 18]: 80 | Plant response rating, Ryegrass, Italian [14, 17]: 90 | Plant response rating, Ryegrass, Italian [14, 18]: 90 | Plant response rating, Blackgrass [15, 17]: 80 | Plant response rating, Blackgrass [15, 18]: 90 | Ryegrass, Italian plant response rating [16]: 100 | Plant response rating, Ryegrass, Italian ([16]; 500 g ai/ha): 100
